Experimental data from US20260365637A1, “DUAL EZH2-HSP90 INHIBITORS” (TAIPEI MEDICAL UNIVERSITY, priority 2023, published 2026).

What was measured:
GBM cells = details: literature, cited from earlier work
brafv600e mutant GBM = details: literature; cited from earlier work
Pt3R cells = assay: Cell viability / cytotoxicity of TMZ-resistant Pt3R cells (CCK8); type: cell-based, human; details: for IC50: read-out: Cell growth inhibitory effect IC50
HSP90a = HSP90a (Homo sapiens, UniProt P07900); assay: In vitro HSP90 inhibition assay (Reaction Biology Corporation); type: biochemical
Procedure: The HSP90 inhibitory activity of the synthesized adduct was assessed by Reaction Biology Corporation, Malvern, PA (http://www.reactionbiology.com).
An in-vitro experiment was performed to assess the inhibitory effect of the synthesized adducts on the heat shock protein 90 (HSP90).

EZH2 (Core Histone) = EZH2 (Core Histone) (Homo sapiens, UniProt Q15910); assay: EZH2 inhibition assay (Reaction Biology Corporation); type: biochemical
Sequence of EZH2 (Core Histone) (Q15910 whole entry): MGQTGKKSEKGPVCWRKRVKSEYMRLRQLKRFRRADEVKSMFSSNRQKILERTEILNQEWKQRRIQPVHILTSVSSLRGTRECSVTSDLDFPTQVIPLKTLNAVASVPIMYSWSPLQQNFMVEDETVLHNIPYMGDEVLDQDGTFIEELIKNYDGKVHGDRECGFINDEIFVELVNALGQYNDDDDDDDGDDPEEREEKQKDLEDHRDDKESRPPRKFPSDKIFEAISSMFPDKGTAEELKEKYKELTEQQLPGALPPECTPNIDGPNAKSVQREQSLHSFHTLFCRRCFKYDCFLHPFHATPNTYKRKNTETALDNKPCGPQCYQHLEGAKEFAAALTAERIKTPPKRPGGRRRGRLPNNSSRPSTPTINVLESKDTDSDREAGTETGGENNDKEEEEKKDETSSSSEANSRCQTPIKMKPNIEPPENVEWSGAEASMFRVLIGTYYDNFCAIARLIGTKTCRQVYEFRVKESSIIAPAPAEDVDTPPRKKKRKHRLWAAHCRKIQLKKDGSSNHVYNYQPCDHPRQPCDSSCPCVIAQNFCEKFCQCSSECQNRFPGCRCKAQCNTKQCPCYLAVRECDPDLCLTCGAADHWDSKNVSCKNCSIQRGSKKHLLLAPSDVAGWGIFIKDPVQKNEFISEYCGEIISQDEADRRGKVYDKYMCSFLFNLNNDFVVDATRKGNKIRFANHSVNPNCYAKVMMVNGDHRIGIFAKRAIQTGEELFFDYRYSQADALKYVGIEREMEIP
Sequence of EZH2 (Core Histone) (O75530 whole entry partner): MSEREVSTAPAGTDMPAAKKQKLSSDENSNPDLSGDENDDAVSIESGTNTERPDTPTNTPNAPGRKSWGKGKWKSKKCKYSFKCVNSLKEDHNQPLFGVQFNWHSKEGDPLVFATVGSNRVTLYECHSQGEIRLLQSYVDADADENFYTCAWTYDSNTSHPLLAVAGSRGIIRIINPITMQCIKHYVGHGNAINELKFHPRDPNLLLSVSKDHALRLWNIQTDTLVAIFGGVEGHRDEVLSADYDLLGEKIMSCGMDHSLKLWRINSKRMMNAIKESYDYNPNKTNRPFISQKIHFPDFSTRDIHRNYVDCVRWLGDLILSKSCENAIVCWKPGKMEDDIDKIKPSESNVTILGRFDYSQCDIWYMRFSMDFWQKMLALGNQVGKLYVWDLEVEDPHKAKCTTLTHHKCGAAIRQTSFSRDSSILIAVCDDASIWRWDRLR
Sequence of EZH2 (Core Histone) (Q15022 whole entry partner): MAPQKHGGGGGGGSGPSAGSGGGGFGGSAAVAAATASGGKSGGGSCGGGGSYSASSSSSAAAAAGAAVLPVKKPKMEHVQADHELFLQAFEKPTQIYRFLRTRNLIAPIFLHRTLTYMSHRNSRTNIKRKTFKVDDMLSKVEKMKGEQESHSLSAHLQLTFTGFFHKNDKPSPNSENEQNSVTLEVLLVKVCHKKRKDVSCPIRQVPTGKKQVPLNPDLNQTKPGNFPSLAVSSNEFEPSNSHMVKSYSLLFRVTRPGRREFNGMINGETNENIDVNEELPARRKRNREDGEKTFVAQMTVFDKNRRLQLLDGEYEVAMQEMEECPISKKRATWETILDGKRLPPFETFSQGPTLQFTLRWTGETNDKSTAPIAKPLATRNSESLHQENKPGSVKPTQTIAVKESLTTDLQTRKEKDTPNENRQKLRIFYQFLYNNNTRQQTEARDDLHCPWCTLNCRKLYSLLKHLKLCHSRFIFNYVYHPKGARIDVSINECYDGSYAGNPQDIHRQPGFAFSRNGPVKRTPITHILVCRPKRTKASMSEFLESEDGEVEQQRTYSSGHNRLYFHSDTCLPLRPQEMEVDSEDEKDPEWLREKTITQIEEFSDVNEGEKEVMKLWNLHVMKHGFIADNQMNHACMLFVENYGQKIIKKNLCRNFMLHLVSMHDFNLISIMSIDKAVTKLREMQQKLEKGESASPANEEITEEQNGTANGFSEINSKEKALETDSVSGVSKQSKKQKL
Sequence of EZH2 (Core Histone) (Q09028 whole entry partner): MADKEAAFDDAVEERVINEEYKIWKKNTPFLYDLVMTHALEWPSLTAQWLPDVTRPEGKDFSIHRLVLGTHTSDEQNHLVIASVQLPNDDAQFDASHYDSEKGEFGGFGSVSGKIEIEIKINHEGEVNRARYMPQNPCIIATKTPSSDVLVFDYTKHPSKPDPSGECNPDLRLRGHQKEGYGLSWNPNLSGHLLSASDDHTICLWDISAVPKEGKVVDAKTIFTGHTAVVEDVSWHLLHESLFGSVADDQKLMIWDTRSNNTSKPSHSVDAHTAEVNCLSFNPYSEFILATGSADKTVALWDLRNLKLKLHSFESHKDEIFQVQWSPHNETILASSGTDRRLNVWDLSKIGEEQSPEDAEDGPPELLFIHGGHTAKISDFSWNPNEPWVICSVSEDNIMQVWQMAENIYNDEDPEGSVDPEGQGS
Sequence of EZH2 (Core Histone) (Q6ZN18 whole entry partner): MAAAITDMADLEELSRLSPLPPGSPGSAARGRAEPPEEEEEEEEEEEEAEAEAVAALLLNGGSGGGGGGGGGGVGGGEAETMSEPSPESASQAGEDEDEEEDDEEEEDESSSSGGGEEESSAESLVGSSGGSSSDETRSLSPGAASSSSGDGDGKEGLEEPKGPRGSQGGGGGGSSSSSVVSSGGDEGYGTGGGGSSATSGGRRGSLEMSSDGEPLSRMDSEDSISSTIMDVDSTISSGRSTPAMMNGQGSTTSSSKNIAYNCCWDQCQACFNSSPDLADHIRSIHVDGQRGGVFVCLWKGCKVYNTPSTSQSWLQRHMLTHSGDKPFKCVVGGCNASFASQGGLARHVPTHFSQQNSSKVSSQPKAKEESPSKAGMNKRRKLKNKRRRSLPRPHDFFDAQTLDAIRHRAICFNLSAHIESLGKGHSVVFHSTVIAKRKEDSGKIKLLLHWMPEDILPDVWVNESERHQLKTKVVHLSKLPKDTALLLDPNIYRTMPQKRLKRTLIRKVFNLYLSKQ
Procedure: The EZH2 inhibitory ability of the synthesized adduct was assessed by Reaction Biology Corporation, Malvern, PA (http://www.reactionbiology.com).

GBM cell lines = assay: Preliminary screening of cell growth inhibition in GBM cell lines; type: cell-based; details: for cytotoxicity / cell growth inhibition against GBM cell lines: preliminary screening
Text: As such, Hsp90 is an ATP-dependent molecular chaperone that regulates protein conformation, stability, and degradation. Several HSP90 inhibitors have been evaluated for their anti-GBM efficacy at a preliminary level. […] Reduction in the mRNA and protein expression of EGFR, PDGFRA, CDK4, and NF1 in heterogeneous GBM cells was also evidenced in treatment with AUY922.

| HSP90 inhibitory potential in words (HSP90a) | IC50 (EZH2 (Core Histone)) | IC50 (HSP90a) | SMILES | cell growth / viability inhibitory effect in words (Pt3R cells) | IC50 (Pt3R cells) | other results |
| --- | --- | --- | --- | --- | --- | --- |
| – | – | – | CCNC(=O)c1noc(-c2cc(C(C)C)c(O)cc2O)c1-c1ccc(CN2CCOCC2)cc1 [AUY922] | – | – | mRNA and protein expression of EGFR, PDGFRA, CDK4, and NF1 (GBM cells; heterogeneous GBM cells): Reduction; anti-GBM effect in GBM cells (GBM cells): led to GBM cell death via apoptosis and autophagy |
| – | – | – | COc1c(C)cnc(Cn2cnc3c(Cl)nc(N)nc32)c1C [BIIB021] | – | – | resistance to molecular targeted therapy (brafv600e mutant GBM): overcome resistance to molecular targeted therapy |
| devoid of HSP90 inhibitory potential | 6.14 nM | – | CCN(c1cc(-c2ccc(NC(=O)c3cc(C(C)C)c(O)cc3O)cc2)cc(C(=O)NCc2c(C)cc(C)[nH]c2=O)c1C)C1CCOCC1 [Compound 1, 4′-(2,4-dihydroxy-5-isopropylbenzamido)-N-((4,6-dimethyl-2-oxo-1,2-dihydropyridin-3-yl)methyl)-5-(ethyl(tetrahydro-2H-pyran-4-yl)amino)-4-methyl-[1,1′-biphenyl]-3-carboxamide] | unable to exert cell growth inhibitory effects | > 79800 nM | – |
| devoid of HSP90 inhibitory potential | 2.06 nM | – | CCN(c1cc(-c2cccc(NC(=O)c3cc(C(C)C)c(O)cc3O)c2)cc(C(=O)NCc2c(C)cc(C)[nH]c2=O)c1C)C1CCOCC1 [Compound 2, 3′-(2,4-dihydroxy-5-isopropylbenzamido)-N-((4,6-dimethyl-2-oxo-1,2-dihydropyridin-3-yl)methyl)-5-(ethyl(tetrahydro-2H-pyran-4-yl)amino)-4-methyl-[1,1′-biphenyl]-3-carboxamide] | unable to exert cell growth inhibitory effects | > 79800 nM | potency in inhibiting EZH2 relative to compound 1 (EZH2 (Core Histone); compound 2 (3′) vs counterpart 1 (4′)): 3 fold |
| conferred HSP90 inhibitory potential | 7.21 nM | 343 nM | CCN(c1cc(-c2ccc(N(C)C(=O)c3cc(C(C)C)c(O)cc3O)cc2)cc(C(=O)NCc2c(C)cc(C)[nH]c2=O)c1C)C1CCOCC1 [Compound 3, 4′-(2,4-dihydroxy-5-isopropyl-N-methylbenzamido)-N-((4,6-dimethyl-2-oxo-1,2-dihydropyridin-3-yl)methyl)-5-(ethyl(tetrahydro-2H-pyran-4-yl)amino)-4-methyl-[1,1′-biphenyl]-3-carboxamide] | the only ones to exert cell viability inhibitory potential | 27400 nM | – |
| conferred HSP90 inhibitory potential | 7.35 nM | 823 nM | CCN(C(=O)c1cc(C(C)C)c(O)cc1O)c1ccc(-c2cc(C(=O)NCc3c(C)cc(C)[nH]c3=O)c(C)c(N(CC)C3CCOCC3)c2)cc1 [Compound 4, N-((4,6-dimethyl-2-oxo-1,2-dihydropyridin-3-yl)methyl)-5-(ethyl(tetrahydro-2H-pyran-4-yl)amino)-4′-(N-ethyl-2,4-dihydroxy-5-isopropylbenzamido)-4-methyl-[1,1′-biphenyl]-3-carboxamide] | – | – | – |
| conferred HSP90 inhibitory potential | 36.6 nM | 63.6 nM | CCN(C(=O)c1cc(C(C)C)c(O)cc1O)c1cccc(-c2cc(C(=O)NCc3c(C)cc(C)[nH]c3=O)c(C)c(N(CC)C3CCOCC3)c2)c1 [Compound 8, N-((4,6-dimethyl-2-oxo-1,2-dihydropyridin-3-yl)methyl)-5-(ethyl(tetrahydro-2H-pyran-4-yl)amino)-3′-(N-ethyl-2,4-dihydroxy-5-isopropylbenzamido)-4-methyl-[1,1′-biphenyl]-3-carboxamide] | the only ones to exert cell viability inhibitory potential | 10800 nM | – |
| – | – | – | CC(C)c1cc(-c2n[nH]c(=O)n2-c2ccc3c(ccn3C)c2)c(O)cc1O [STA9090] | – | – | cytotoxicity / cell growth inhibition against GBM cell lines (GBM cell lines): moderate cytotoxicity; cell growth inhibitory effects relative to the cocktail (GBM cell lines; single agent vs combination with Tazemetostat): several fold less than that observed with the cocktail |
| – | – | – | CCN(c1cc(-c2ccc(CN3CCOCC3)cc2)cc(C(=O)NCc2c(C)cc(C)[nH]c2=O)c1C)C1CCOCC1 [Tazemetostat] | unable to exert cell growth inhibitory effects | – | anti-GBM efficacy (GBM cell lines): did not exhibit anti-GBM efficacy; cytotoxicity / cell growth inhibition against GBM cell lines (GBM cell lines; listed as tazemetosat): cytotoxicity-devoid trends; cytotoxicity / cell growth inhibition against GBM cell lines (GBM cell lines; listed as tazemetostat (I)): could not exert cell growth inhibitory potential against the GBM cell lines |
| – | – | – | O=C1C=C(Nc2ccc3cnccc3c2)c2ccccc2C1=O [YZ129] | – | – | anti-GBM effect in GBM cells (GBM cells): promoted apoptosis and exerted GBM cell cycle arrest at the G2/M phase, inhibiting tumour cell proliferation and migration |

| SMILES | HSP90 inhibitory potential in words (HSP90a) | IC50 (EZH2 (Core Histone)) | IC50 (HSP90a) | cell growth / viability inhibitory effect in words (Pt3R cells) | IC50 (Pt3R cells) | other results |
| --- | --- | --- | --- | --- | --- | --- |
| CCCN(C(=O)c1cc(C(C)C)c(O)cc1O)c1ccc(-c2cc(C(=O)NCc3c(C)cc(C)[nH]c3=O)c(C)c(N(CC)C3CCOCC3)c2)cc1 [Compound 5, 4′-(2,4-dihydroxy-5-isopropyl-N-propylbenzamido)-N-((4,6-dimethyl-2-oxo-1,2-dihydropyridin-3-yl)methyl)-5-(ethyl(tetrahydro-2H-pyran-4-yl)amino)-4-methyl-[1,1′-biphenyl]-3-carboxamide] | could not replicate the activity-conferring trends | 21.8 nM | – | – | > 79800 nM | – |
| CCN(c1cc(-c2ccc(N(Cc3ccccc3)C(=O)c3cc(C(C)C)c(O)cc3O)cc2)cc(C(=O)NCc2c(C)cc(C)[nH]c2=O)c1C)C1CCOCC1 [Compound 6, 4′-(N-benzyl-2,4-dihydroxy-5-isopropylbenzamido)-N-((4,6-dimethyl-2-oxo-1,2-dihydropyridin-3-yl)methyl)-5-(ethyl(tetrahydro-2H-pyran-4-yl)amino)-4-methyl-[1,1′-biphenyl]-3-carboxamide] | could not replicate the activity-conferring trends | 11.7 nM | – | – | > 79800 nM | – |
| CCCN(C(=O)c1cc(C(C)C)c(O)cc1O)c1cccc(-c2cc(C(=O)NCc3c(C)cc(C)[nH]c3=O)c(C)c(N(CC)C3CCOCC3)c2)c1 [Compound 9, 3′-(2,4-dihydroxy-5-isopropyl-N-propylbenzamido)-N-((4,6-dimethyl-2-oxo-1,2-dihydropyridin-3-yl)methyl)-5-(ethyl(tetrahydro-2H-pyran-4-yl)amino)-4-methyl-[1,1′-biphenyl]-3-carboxamide] | could not replicate the activity-conferring trends | 40.1 nM | 9330 nM | unable to exert cell growth inhibitory effects | > 79800 nM | – |
| CCN(c1cc(-c2cccc(N(Cc3ccccc3)C(=O)c3cc(C(C)C)c(O)cc3O)c2)cc(C(=O)NCc2c(C)cc(C)[nH]c2=O)c1C)C1CCOCC1 [Compound 10, 3′-(N-benzyl-2,4-dihydroxy-5-isopropylbenzamido)-N-((4,6-dimethyl-2-oxo-1,2-dihydropyridin-3-yl)methyl)-5-(ethyl(tetrahydro-2H-pyran-4-yl)amino)-4-methyl-[1,1′-biphenyl]-3-carboxamide] | could not replicate the activity-conferring trends | 641 nM | 2840 nM | unable to exert cell growth inhibitory effects | > 79800 nM | – |
